The source of these data is ChEMBL document CHEMBL1143939, “Binding effect and design of a competitive inhibitory peptide for HMG-CoA reductase through modeling of an active peptide backbone” (Bioorg Med Chem, 2008).

Active and inactive are the calls of the source. No cut-off for these calls is given here. Non-standard residues stand in square brackets, D forms with d. Residues, ends and D or L forms follow the SMILES beside them. Phe(4-F) = N[C@@H](Cc1ccc(F)cc1)C(=O)O

One experiment deals with T1, 3-hydroxy-3-methylglutaryl-coenzyme A reductase (Mesocricetus auratus) (UniProt P09610).
T1 sequence (whole entry): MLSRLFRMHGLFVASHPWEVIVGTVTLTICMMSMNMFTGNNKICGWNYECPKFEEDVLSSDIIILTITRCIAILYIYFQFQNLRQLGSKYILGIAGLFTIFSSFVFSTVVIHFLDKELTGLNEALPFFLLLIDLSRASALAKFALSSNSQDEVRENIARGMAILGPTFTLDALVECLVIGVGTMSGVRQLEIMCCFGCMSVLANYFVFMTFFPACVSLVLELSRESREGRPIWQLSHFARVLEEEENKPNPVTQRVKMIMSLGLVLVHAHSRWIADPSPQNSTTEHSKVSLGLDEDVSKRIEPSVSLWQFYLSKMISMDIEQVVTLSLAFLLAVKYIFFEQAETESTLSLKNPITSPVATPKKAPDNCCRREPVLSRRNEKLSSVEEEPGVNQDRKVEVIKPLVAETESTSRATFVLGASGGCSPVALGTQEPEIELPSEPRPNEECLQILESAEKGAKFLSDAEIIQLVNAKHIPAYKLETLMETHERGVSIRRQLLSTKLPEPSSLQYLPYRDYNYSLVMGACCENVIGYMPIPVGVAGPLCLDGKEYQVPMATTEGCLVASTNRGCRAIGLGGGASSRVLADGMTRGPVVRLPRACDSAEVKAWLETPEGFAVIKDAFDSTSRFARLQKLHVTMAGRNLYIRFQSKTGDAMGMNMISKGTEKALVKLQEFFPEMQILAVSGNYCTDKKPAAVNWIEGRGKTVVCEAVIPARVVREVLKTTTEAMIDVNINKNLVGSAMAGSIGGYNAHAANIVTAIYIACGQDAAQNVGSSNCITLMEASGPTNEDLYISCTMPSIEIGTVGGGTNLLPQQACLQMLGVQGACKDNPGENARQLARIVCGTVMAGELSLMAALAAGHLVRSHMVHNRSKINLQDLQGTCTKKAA
Kind of experiment: (§1) Inhibition of Syrian hamster HMGR.
Consider `CC(C)[C@H](NC(=O)CN)C(=O)N[C@@H](C)C(=O)N[C@@H](CCC(=O)O)C(=O)O` (H-GVAE-OH), for which the outcome was inactive.
Turning to H-GGPTGG-OH, the outcome was inactive.

The target of the next experiment is T2, 3-hydroxy-3-methylglutaryl-coenzyme A reductase (Mesocricetus auratus, UniProt P09610).
T2 sequence (P09610 whole entry): T1 sequence (whole entry)
The description is as §1.
The term IC50 denotes the concentration at which inhibition is half-maximal. Read a high IC50 as weaker potency in that assay. As to `CC(C)[C@H](NC(=O)[C@@H](N)Cc1ccccc1)C(=O)N[C@@H](C)C(=O)N[C@@H](CCC(=O)O)C(=O)O` (H-FVAE-OH), it took 43.8 µM to reach half-maximal inhibition (IC50).
Same read-out and setting: in the case of `CC[C@H](C)[C@H](N)C(=O)N[C@@H](C)C(=O)N[C@H](C(=O)N[C@@H](CCC(=O)O)C(=O)O)C(C)C` (H-IAVE-OH) it was 75.2 µM.
Still for that read-out and setting: the same measure for `CC[C@H](C)[C@H](N)C(=O)N[C@@H](C)C(=O)N[C@H](C(=O)N1CCC[C@H]1C(=O)O)C(C)C` (H-IAVP-OH): 97.1 µM.
Still for that read-out and setting: in the case of `CC[C@H](C)[C@H](N)C(=O)N[C@H](C(=O)N[C@@H](C)C(=O)N[C@@H](CCC(=O)O)C(=O)O)C(C)C` (H-IVAE-OH) it was 44.1 µM; in that of `CC(C)C[C@H](N)C(=O)N1CCC[C@H]1C(=O)N[C@@H](Cc1ccc(O)cc1)C(=O)N1CCC[C@H]1C(=O)O` (H-LPYP-OH), 485 µM; in that of `CC(C)[C@H](NC(=O)[C@H](C)NC(=O)[C@@H](N)Cc1ccc(O)cc1)C(=O)N[C@@H](CCC(=O)O)C(=O)O` (H-YAVE-OH), 52.6 µM.
As to `CC(C)[C@H](NC(=O)[C@@H](N)Cc1ccc(O)cc1)C(=O)N[C@@H](C)C(=O)N[C@@H](CCC(=O)O)C(=O)O` (H-YVAE-OH), the midpoint of inhibition, the IC50, lay at 41.8 µM.
Same read-out and setting: in the case of `CC(C)[C@H](NC(=O)[C@@H](N)Cc1ccc(F)cc1)C(=O)N[C@@H](C)C(=O)N[C@@H](CCC(=O)O)C(=O)O` (H-[Phe(4-F)]VAE-OH) it was 3.8 µM; in that of H-GFPDGG-OH, 1.5 µM.
The same measure, in the same setting: in the case of H-GFPEGG-OH it was 1.7 µM; in that of H-GFPTGG-OH, 16.9 µM; in that of H-GLPDGG-OH, 22.3 µM.
Still for that read-out and setting: the same measure for H-GLPEGG-OH: 27.2 µM; for H-GLPTGG-OH: 19.4 µM.
H-IAVPGEVA-OH showed an IC50 of 152 µM.
